Test results: PubChem BioAssay (NCI)
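Tested at 5 concentrations; 48 h exposure; 96-well plates; endpoints linearly interpolated, else capped at highest concentration. Definition used: TGI = concentration required for complete inhibition of growth.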

What was measured:
Assay in all cases: inhibition of tumour cell growth, NCI panel, 48 h
SR leukemia = system: SR leukemia
OVCAR-3 ovarian = system: OVCAR-3 ovarian
SF-539 CNS = system: SF-539 CNS
786-0 renal = system: 786-0 renal
SNB-75 CNS = system: SNB-75 CNS
OVCAR-4 ovarian = system: OVCAR-4 ovarian
HOP-92 NSCLC = system: HOP-92 NSCLC
HOP-62 NSCLC = system: HOP-62 NSCLC
HT29 colon = system: HT29 colon
M19-MEL melanoma = system: M19-MEL melanoma
SN12C renal = system: SN12C renal
OVCAR-8 ovarian = system: OVCAR-8 ovarian
RXF 393 renal = system: RXF 393 renal
SK-MEL-5 melanoma = system: SK-MEL-5 melanoma
SNB-78 CNS = system: SNB-78 CNS
UO-31 renal = system: UO-31 renal
NCI-H460 lung = system: NCI-H460 lung
CAKI-1 renal = system: CAKI-1 renal
SF-295 CNS = system: SF-295 CNS
ACHN renal = system: ACHN renal
HCT-15 colon = system: HCT-15 colon
LXFL 529 NSCLC = system: LXFL 529 NSCLC
UACC-62 melanoma = system: UACC-62 melanoma
SK-OV-3 ovarian = system: SK-OV-3 ovarian
U251 CNS = system: U251 CNS
CCRF-CEM leukemia = system: CCRF-CEM leukemia
KM12 colon = system: KM12 colon
NCI-H522 lung = system: NCI-H522 lung
XF 498 CNS = system: XF 498 CNS
LOX IMVI melanoma = system: LOX IMVI melanoma
DMS 273 small cell lung = system: DMS 273 small cell lung
TK-10 renal = system: TK-10 renal
KM20L2 colon = system: KM20L2 colon
COLO 205 colon = system: COLO 205 colon
SNB-19 CNS = system: SNB-19 CNS
RXF-631 renal = system: RXF-631 renal
A498 renal = system: A498 renal
NCI-H23 lung = system: NCI-H23 lung
SF-268 CNS = system: SF-268 CNS
DLD-1 colon = system: DLD-1 colon
MOLT-4 leukemia = system: MOLT-4 leukemia
SK-MEL-28 melanoma = system: SK-MEL-28 melanoma
UACC-257 melanoma = system: UACC-257 melanoma
HOP-18 NSCLC = system: HOP-18 NSCLC
OVCAR-5 ovarian = system: OVCAR-5 ovarian
NCI-H226 lung = system: NCI-H226 lung
EKVX NSCLC = system: EKVX NSCLC
HCC-2998 colon = system: HCC-2998 colon
K-562 leukemia = system: K-562 leukemia
SK-MEL-2 melanoma = system: SK-MEL-2 melanoma
A549 NSCLC = system: A549 NSCLC
HL-60(TB) leukemia = system: HL-60(TB) leukemia
IGROV1 ovarian = system: IGROV1 ovarian
RPMI-8226 leukemia = system: RPMI-8226 leukemia
M14 melanoma = system: M14 melanoma
MALME-3M melanoma = system: MALME-3M melanoma
DMS 114 small cell lung = system: DMS 114 small cell lung
SW-620 colon = system: SW-620 colon

CC(/C=C/C(=O)c1sc(C(N)=S)nc1C)=C\c1ccccc1
TGI (SR leukemia): 98 µM | TGI (OVCAR-3 ovarian): > 100 µM | TGI (SF-539 CNS): > 100 µM | TGI (786-0 renal): > 100 µM | TGI (SNB-75 CNS): > 100 µM | TGI (OVCAR-4 ovarian): > 100 µM | TGI (HOP-92 NSCLC): > 100 µM | TGI (HOP-62 NSCLC): > 100 µM | TGI (HT29 colon): > 100 µM | TGI (M19-MEL melanoma): > 100 µM | TGI (SN12C renal): > 100 µM | TGI (OVCAR-8 ovarian): > 100 µM | TGI (RXF 393 renal): > 100 µM | TGI (SK-MEL-5 melanoma): > 100 µM | TGI (SNB-78 CNS): > 100 µM | TGI (UO-31 renal): > 100 µM | TGI (NCI-H460 lung): > 100 µM | TGI (CAKI-1 renal): 56.4 µM | TGI (SF-295 CNS): > 100 µM | TGI (ACHN renal): > 100 µM | TGI (HCT-15 colon): > 100 µM | TGI (LXFL 529 NSCLC): > 100 µM | TGI (UACC-62 melanoma): > 100 µM | TGI (SK-OV-3 ovarian): > 100 µM | TGI (U251 CNS): > 100 µM | TGI (CCRF-CEM leukemia): > 100 µM | TGI (KM12 colon): > 100 µM | TGI (NCI-H522 lung): > 100 µM | TGI (XF 498 CNS): > 100 µM | TGI (LOX IMVI melanoma): 40.2 µM | TGI (DMS 273 small cell lung): 45.5 µM | TGI (TK-10 renal): > 100 µM | TGI (KM20L2 colon): > 100 µM | TGI (COLO 205 colon): > 100 µM | TGI (SNB-19 CNS): 31.2 µM | TGI (RXF-631 renal): > 100 µM | TGI (A498 renal): > 100 µM | TGI (NCI-H23 lung): > 100 µM | TGI (SF-268 CNS): > 100 µM | TGI (DLD-1 colon): 57.4 µM | TGI (MOLT-4 leukemia): > 100 µM | TGI (SK-MEL-28 melanoma): > 100 µM | TGI (UACC-257 melanoma): > 100 µM | TGI (HOP-18 NSCLC): > 100 µM | TGI (OVCAR-5 ovarian): > 100 µM | TGI (NCI-H226 lung): > 100 µM | TGI (EKVX NSCLC): > 100 µM | TGI (HCC-2998 colon): > 100 µM | TGI (K-562 leukemia): > 100 µM | TGI (SK-MEL-2 melanoma): > 100 µM | TGI (A549 NSCLC): > 100 µM | TGI (HL-60(TB) leukemia): > 100 µM | TGI (IGROV1 ovarian): > 100 µM | TGI (RPMI-8226 leukemia): 44.6 µM | TGI (M14 melanoma): > 100 µM | TGI (MALME-3M melanoma): > 100 µM | TGI (DMS 114 small cell lung): 35 µM

COc1ccc(Br)c(CN2CCc3ccccc32)c1OS(=O)(=O)c1ccc(C)cc1
TGI (SR leukemia): > 100 µM | TGI (OVCAR-3 ovarian): 75.9 µM | TGI (SF-539 CNS): 57.8 µM | TGI (786-0 renal): > 100 µM | TGI (SNB-75 CNS): 88.8 µM | TGI (HOP-92 NSCLC): > 100 µM | TGI (M19-MEL melanoma): > 100 µM | TGI (SN12C renal): > 100 µM | TGI (OVCAR-8 ovarian): > 100 µM | TGI (RXF 393 renal): 65.7 µM | TGI (SNB-78 CNS): > 100 µM | TGI (UO-31 renal): > 100 µM | TGI (SF-295 CNS): > 100 µM | TGI (ACHN renal): > 100 µM | TGI (HCT-15 colon): > 100 µM | TGI (CCRF-CEM leukemia): > 100 µM | TGI (KM12 colon): > 100 µM | TGI (NCI-H522 lung): 30.8 µM | TGI (XF 498 CNS): 92 µM | TGI (COLO 205 colon): 33.8 µM | TGI (SNB-19 CNS): > 100 µM | TGI (RXF-631 renal): > 100 µM | TGI (NCI-H23 lung): 85.1 µM | TGI (SF-268 CNS): > 100 µM | TGI (DLD-1 colon): > 100 µM | TGI (MOLT-4 leukemia): > 100 µM | TGI (SK-MEL-28 melanoma): > 100 µM | TGI (UACC-257 melanoma): > 100 µM | TGI (HOP-18 NSCLC): > 100 µM | TGI (OVCAR-5 ovarian): > 100 µM | TGI (NCI-H226 lung): > 100 µM | TGI (EKVX NSCLC): > 100 µM | TGI (HCC-2998 colon): > 100 µM | TGI (K-562 leukemia): > 100 µM | TGI (SK-MEL-2 melanoma): > 100 µM | TGI (A549 NSCLC): > 100 µM | TGI (HL-60(TB) leukemia): > 100 µM | TGI (RPMI-8226 leukemia): > 100 µM | TGI (SW-620 colon): > 100 µM | TGI (M14 melanoma): > 100 µM | TGI (MALME-3M melanoma): > 100 µM | TGI (DMS 114 small cell lung): 53.5 µM
